Laboratory results as given in patent publication US11149031B2, “Substituted N-(3-fluoropropyl)-pyrrolidine compounds, processes for their preparation and therapeutic uses thereof” (SANOFI, priority 2016, dated 2021).
Like-named read-outs stand apart in the source and are kept apart here.

What was measured:
[1] = target: ERα in MCF7 cells (Homo sapiens (Human), UniProt P03372); experiment: Test C: estrogen receptor degradation activity, ERα in cell western assay in MCF7 cells; type: cell-based; details: for DC50: 4 hours post compound addition, ERα in cell western, read-out: Degradation IC50; for % Degradation at 3 μM: 4 hours, relative to fulvestrant
ERα in MCF7 cells, sequence (P03372 whole entry): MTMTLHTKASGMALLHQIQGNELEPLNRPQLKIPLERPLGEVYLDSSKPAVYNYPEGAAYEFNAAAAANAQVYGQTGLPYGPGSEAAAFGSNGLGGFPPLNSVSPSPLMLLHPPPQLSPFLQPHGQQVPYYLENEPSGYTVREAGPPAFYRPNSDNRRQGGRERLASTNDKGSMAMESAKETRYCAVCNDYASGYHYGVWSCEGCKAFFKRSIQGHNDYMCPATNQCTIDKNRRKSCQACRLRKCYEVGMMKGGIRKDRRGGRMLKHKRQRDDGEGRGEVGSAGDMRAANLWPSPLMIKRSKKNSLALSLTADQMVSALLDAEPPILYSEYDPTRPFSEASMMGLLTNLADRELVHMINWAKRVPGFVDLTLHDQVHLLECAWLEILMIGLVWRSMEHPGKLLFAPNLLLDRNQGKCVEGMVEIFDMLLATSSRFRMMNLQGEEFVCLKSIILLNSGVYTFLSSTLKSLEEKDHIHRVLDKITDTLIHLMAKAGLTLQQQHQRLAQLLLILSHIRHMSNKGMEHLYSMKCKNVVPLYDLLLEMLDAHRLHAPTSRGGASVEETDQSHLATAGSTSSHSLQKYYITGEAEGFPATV
Procedure, shortened: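 In-cell western: ERα level (green) against DNA stain Syto-64 (red) by integrated intensity. MCF7 cells in hormone-depleted medium exposed 4 h to compound at 3-0.000018 μM final (1:5 series); fulvestrant 0.1 μM as positive control.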

[2] = target: His6-ERα298-554 WT (ERα ligand-binding domain) (Homo sapiens (Human), UniProt P03372); experiment: Test A: biochemical antagonist activity, LanthaScreen TR-FRET ERα coactivator assay, WT; details: read-out: Antagonism WT IC50
His6-ERα298-554 WT (ERα ligand-binding domain), sequence (P03372 298-554): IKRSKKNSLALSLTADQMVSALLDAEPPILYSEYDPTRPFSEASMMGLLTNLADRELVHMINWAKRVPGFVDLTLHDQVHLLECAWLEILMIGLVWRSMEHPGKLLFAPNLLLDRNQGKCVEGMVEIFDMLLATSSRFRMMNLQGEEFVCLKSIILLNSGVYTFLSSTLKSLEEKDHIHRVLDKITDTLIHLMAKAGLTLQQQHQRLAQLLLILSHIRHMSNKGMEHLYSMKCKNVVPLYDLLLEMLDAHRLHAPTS
Procedure, shortened: (§1)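 Compounds were added to receptor LBD (0.5 nM), terbium-labelled His6 antibody (0.5 nM), PGC1a coactivator peptide (250 nM) and estradiol at 3 nM or 10 nM. After incubating overnight at room temperature, the 520:495 nm ratio gave IC50 values by four-parameter logistic regression.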

[3] = tested on: MCF7 cells expressing mutant estrogen receptor Tyr 537 Ser; experiment: Test B: cell proliferation/viability assay (CellTiter-Glo) on MCF7 Tyr 537 Ser mutant; type: cell-based; details: Homo sapiens, MCF7, 168 h, MCF7 cells expressing ER Tyr 537 Ser mutant, 7 days of compound exposure, read-out: proliferation MCF7 Y537S IC50
Procedure, shortened: (§2)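 Seven-day compound exposure, 9 concentrations from 3 to 0.000001 μM, in phenol red-free medium with 5% charcoal-stripped serum. ER Tyr537Ser and Asp538Gly lines derive from transfected MCF7 selected to grow without estradiol. Viability from CellTiter-Glo luminescence, background-corrected, as percent of untreated.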

[4] = tested on: MCF7 cells expressing mutant estrogen receptor Asp 538 Gly; experiment: Test B: cell proliferation/viability assay (CellTiter-Glo) on MCF7 Asp 538 Gly mutant; type: cell-based; details: Homo sapiens, MCF7, 168 h, MCF7 cells expressing ER Asp 538 Gly mutant, 7 days of compound exposure, read-out: proliferation MCF7 D538G IC50
Procedure, shortened: as §2

[5] = target: His6-ERα298-554 D538G mutant (ERα ligand-binding domain) (Homo sapiens (Human), UniProt P03372, D538G); experiment: Test A: biochemical antagonist activity, LanthaScreen TR-FRET ERα coactivator assay, D538G mutant; details: read-out: Antagonism D538G IC50
His6-ERα298-554 D538G mutant (ERα ligand-binding domain), sequence (P03372 298-554 D538G): as the sequence (P03372 298-554) above, with D241G counted along it
Procedure, shortened: as §1

[6] = target: His6-ERα298-554 Y537S mutant (ERα ligand-binding domain) (Homo sapiens (Human), UniProt P03372, Y537S); experiment: Test A: biochemical antagonist activity, LanthaScreen TR-FRET ERα coactivator assay, Y537S mutant; details: read-out: Antagonism Y537S IC50
His6-ERα298-554 Y537S mutant (ERα ligand-binding domain), sequence (P03372 298-554 Y537S): as the sequence (P03372 298-554) above, with Y240S counted along it
Procedure, shortened: as §1

[7] = tested on: MCF7 cells (breast tumor cells) WT; experiment: Test B: cell proliferation/viability assay (CellTiter-Glo) on MCF7 WT; type: cell-based; details: Homo sapiens, MCF7, 168 h, 7 days of compound exposure
Procedure, shortened: as §2

[8] = asterisk (*): protocol using 10 nM estradiol

CCOc1ccc(C2=C(c3ccc(N[C@H]4CCN(CCCF)C4)cc3)c3ccc(O)cc3CCC2)c(F)n1 [Example 86, 6-(6-ethoxy-2-fluoro-3-pyridyl)-5-[4-[[(3S)-1-(3-fluoropropyl)pyrrolidin-3-yl]amino]phenyl]-8,9-dihydro-7H-benzo[7]annulen-2-ol]
DC50 [1]: 0.5 nM | % Degradation at 3 μM [1]: 95% | IC50 [2, 8]: 0.5 nM | IC50 [3]: 1 nM | IC50 [4]: 0.2 nM | IC50 [5, 8]: 7 nM | IC50 [6, 8]: 5 nM | IC50 [7]: 0.2 nM

COc1ccc(C2=C(c3ccc(O[C@H]4CCN(CCCF)C4)cc3)c3ccc(O)cc3OCC2)c(Cl)c1 [Example 154, 4-(2-chloro-4-methoxy-phenyl)-5-[4-[(3S)-1-(3-fluoropropyl)pyrrolidin-3-yl]oxyphenyl]-2,3-dihydro-1-benzoxepin-8-ol]
DC50 [1]: 0.2 nM | % Degradation at 3 μM [1]: 92% | IC50 [2, 8]: 5 nM | IC50 [3]: 4 nM | IC50 [4]: 0.6 nM | IC50 [5, 8]: 77 nM | IC50 [6, 8]: 51 nM | IC50 [7]: 0.2 nM

CCOc1nccc(C2=C(c3ccc(O[C@H]4CCN(CCCF)C4)cc3)c3ccc(O)cc3SC2)c1F [Example 69, 3-(2-ethoxy-3-fluoro-4-pyridyl)-4-[4-[(3S)-1-(3-fluoropropyl)pyrrolidin-3-yl]oxyphenyl]-2H-thiochromen-7-ol]
DC50 [1]: 0.2 nM | % Degradation at 3 μM [1]: 81% | IC50 [2, 8]: 1570 nM | IC50 [3]: 0.8 nM | IC50 [4]: 0.2 nM | IC50 [5, 8]: > 4000 nM | IC50 [6, 8]: > 4000 nM | IC50 [7]: 0.2 nM

Cc1ccc(C2=C(c3ccc(O[C@H]4CCN(CCCF)C4)nc3)c3ccc(O)cc3SC2)c(F)c1 [Example 78, 3-(2-fluoro-4-methyl-phenyl)-4-[6-[(3S)-1-(3-fluoropropyl)pyrrolidin-3-yl]oxy-3-pyridyl]-2H-thiochromen-7-ol]
DC50 [1]: 0.2 nM | % Degradation at 3 μM [1]: 88% | IC50 [2, 8]: 1 nM | IC50 [3]: 4 nM | IC50 [4]: 0.9 nM | IC50 [5, 8]: 29 nM | IC50 [6, 8]: 15 nM | IC50 [7]: 0.3 nM

Oc1ccc2c(c1)SCC(c1ccc3c(c1)OC(F)(F)O3)=C2c1ccc(O[C@H]2CCN(CCCF)C2)cc1 [Example 31, 3-(2,2-difluoro-1,3-benzodioxol-5-yl)-4-[4-[(3S)-1-(3-fluoropropyl)pyrrolidin-3-yl]oxyphenyl]-2H-thiochromen-7-ol]
DC50 [1]: 0.7 nM | % Degradation at 3 μM [1]: 86% | IC50 ([2]; protocol with 3 nM estradiol): 5 nM | IC50 [3]: 6 nM | IC50 [4]: 1 nM | IC50 ([5]; protocol with 3 nM estradiol): 101 nM | IC50 ([6]; protocol with 3 nM estradiol): 59 nM | IC50 [7]: 0.4 nM

Oc1ccc2c(c1)SCC(c1ccc(Cl)cc1F)=C2c1ccc(O[C@H]2CCN(CCCF)C2)cc1 [Example 18, 3-(4-chloro-2-fluoro-phenyl)-4-[4-[(3S)-1-(3-fluoropropyl)pyrrolidin-3-yl]oxyphenyl]-2H-thiochromen-7-ol]
DC50 [1]: 0.6 nM | % Degradation at 3 μM [1]: 90% | IC50 ([2]; protocol with 3 nM estradiol): 9 nM | IC50 [3]: 7 nM | IC50 [4]: 1 nM | IC50 ([5]; protocol with 3 nM estradiol): 39 nM | IC50 ([6]; protocol with 3 nM estradiol): 15 nM | IC50 [7]: 0.5 nM

Oc1ccc(C2Sc3cc(O)ccc3OC2c2ccc(O[C@H]3CCN(CCCF)C3)cc2)cc1 (stereo partly drawn) [Example 258, 2-[4-[(3S)-1-(3-fluoropropyl)pyrrolidin-3-yl]oxyphenyl]-3-(4-hydroxyphenyl)-2,3-dihydro-1,4-benzoxathiin-6-ol]
DC50 [1]: 5 nM | % Degradation at 3 μM [1]: 77% | IC50 [2, 8]: 203 nM | IC50 [3]: 17 nM | IC50 [4]: 1 nM | IC50 [5, 8]: > 4000 nM | IC50 [6, 8]: 2420 nM | IC50 [7]: 6 nM

Cc1ccc(C2=C(c3ccc(O[C@H]4CCN(CCCF)C4)cc3)c3ccc(O)c(F)c3OCC2)c(F)c1 [Example 106, 9-fluoro-4-(2-fluoro-4-methyl-phenyl)-5-[4-[(3S)-1-(3-fluoropropyl)pyrrolidin-3-yl]oxyphenyl]-2,3-dihydro-1-benzoxepin-8-ol]
DC50 [1]: 0.5 nM | % Degradation at 3 μM [1]: 90% | IC50 ([2]; protocol with 3 nM estradiol): 5 nM | IC50 [3]: 12 nM | IC50 [4]: 3 nM | IC50 ([5]; protocol with 3 nM estradiol): 31 nM | IC50 ([6]; protocol with 3 nM estradiol): 16 nM | IC50 [7]: 0.7 nM

Oc1ccc2c(c1)C(c1ccc(O[C@H]3CCN(CCCF)C3)cc1)=C(c1ccc(OC(F)(F)F)cc1)CC2 [Example 8, 8-[4-[(3S)-1-(3-fluoropropyl)pyrrolidin-3-yl]oxyphenyl]-7-[4-(trifluoromethoxy)phenyl]-5,6-dihydronaphthalen-2-ol]
DC50 [1]: 25 nM | % Degradation at 3 μM [1]: 84% | IC50 [2, 8]: 1390 nM | IC50 [3]: > 999 nM | IC50 [4]: > 999 nM | IC50 [5, 8]: > 4000 nM | IC50 [6, 8]: > 4000 nM | IC50 [7]: > 999 nM

CC/C(=C(/c1ccc(O[C@H]2CCN(CCCF)C2)cc1)c1ccc2[nH]ncc2c1)c1ccc(F)cc1Cl [Example 255, 5-[(E)-2-(2-chloro-4-fluoro-phenyl)-1-[4-[(3S)-1-(3-fluoropropyl)pyrrolidin-3-yl]oxyphenyl]but-1-enyl]-1H-indazole]
DC50 [1]: 0.6 nM | % Degradation at 3 μM [1]: 92% | IC50 [2, 8]: 15 nM | IC50 [3]: 6 nM | IC50 [4]: 0.9 nM | IC50 [5, 8]: 190 nM | IC50 [6, 8]: 140 nM | IC50 [7]: 0.1 nM

Oc1ccc2c(c1)SCC(c1ccc(OC(F)F)cc1F)=C2c1ccc(O[C@H]2CCN(CCCF)C2)cc1 [Example 35, 3-[4-(difluoromethoxy)-2-fluoro-phenyl]-4-[4-[(3S)-1-(3-fluoropropyl)pyrrolidin-3-yl]oxyphenyl]-2H-thiochromen-7-ol]
DC50 [1]: 1 nM | % Degradation at 3 μM [1]: 89% | IC50 [2, 8]: 16 nM | IC50 [3]: 2 nM | IC50 [4]: 0.3 nM | IC50 [5, 8]: 421 nM | IC50 [6, 8]: 220 nM | IC50 [7]: 0.2 nM

Cc1noc(C)c1C1=C(c2ccc(O[C@H]3CCN(CCCF)C3)cc2)c2ccc(O)cc2SCC1 [Example 219, 4-(3,5-dimethylisoxazol-4-yl)-5-[4-[(3S)-1-(3-fluoropropyl)pyrrolidin-3-yl]oxyphenyl]-2,3-dihydro-1-benzothiepin-8-ol]
DC50 [1]: 0.2 nM | % Degradation at 3 μM [1]: 90% | IC50 [2, 8]: 12 nM | IC50 [3]: 2 nM | IC50 [4]: 0.4 nM | IC50 [5, 8]: 233 nM | IC50 [6, 8]: 149 nM | IC50 [7]: 0.1 nM

Oc1ccc2c(c1)OCCC(c1ccc3cc[nH]c3c1)=C2c1ccc(O[C@H]2CCN(CCCF)C2)cc1 [Example 103, 5-[4-[(3S)-1-(3-fluoropropyl)pyrrolidin-3-yl]oxyphenyl]-4-(1H-indol-6-yl)-2,3-dihydro-1-benzoxepin-8-ol]
DC50 [1]: 3 nM | % Degradation at 3 μM [1]: 89% | IC50 ([2]; protocol with 3 nM estradiol): 38 nM | IC50 [3]: 4 nM | IC50 [4]: 1 nM | IC50 ([5]; protocol with 3 nM estradiol): 252 nM | IC50 ([6]; protocol with 3 nM estradiol): 101 nM | IC50 [7]: 0.3 nM

CCOc1ccc(C2=C(c3ccc(O[C@H]4CCN(CCCF)C4)cc3)c3ccc(O)cc3SC2)c(F)c1F [Example 41, 3-(4-ethoxy-2,3-difluoro-phenyl)-4-[4-[(3S)-1-(3-fluoropropyl)pyrrolidin-3-yl]oxyphenyl]-2H-thiochromen-7-ol]
DC50 [1]: 1 nM | % Degradation at 3 μM [1]: 85% | IC50 [2, 8]: 27 nM | IC50 [3]: 4 nM | IC50 [4]: 1 nM | IC50 [5, 8]: 740 nM | IC50 [6, 8]: 407 nM | IC50 [7]: 0.9 nM

Oc1ccc2c(c1F)CCCC(c1ccc(OC(F)F)c(F)c1)=C2c1ccc(O[C@H]2CCN(CCCF)C2)nc1 [Example 249, 6-[4-(difluoromethoxy)-3-fluoro-phenyl]-1-fluoro-5-[6-[(3S)-1-(3-fluoropropyl)pyrrolidin-3-yl]oxy-3-pyridyl]-8,9-dihydro-7H-benzo[7]annulen-2-ol]
DC50 [1]: 0.3 nM | % Degradation at 3 μM [1]: 87% | IC50 [2, 8]: 1 nM | IC50 [3]: 4 nM | IC50 [4]: 0.6 nM | IC50 [5, 8]: 24 nM | IC50 [6, 8]: 14 nM | IC50 [7]: 0.3 nM

Oc1ccc2c(c1)C(c1ccc(O[C@H]3CCN(CCCF)C3)cc1)=C(c1ccc(OC(F)(F)F)cc1Cl)CC2 [Example 7, 7-[2-chloro-4-(trifluoromethoxy)phenyl]-8-[4-[(3S)-1-(3-fluoropropyl)pyrrolidin-3-yl]oxyphenyl]-5,6-dihydronaphthalen-2-ol]
DC50 [1]: 22 nM | % Degradation at 3 μM [1]: 82% | IC50 [2, 8]: 1470 nM | IC50 [3]: > 999 nM | IC50 [4]: 18 nM | IC50 [5, 8]: > 4000 nM | IC50 [6, 8]: > 4000 nM | IC50 [7]: 13 nM
